Values quoted from earlier work as cited in patent US20020054922A1, “Cosmetic composition and method” (priority 2000, published 2002).

System: skin punch biopsy wound
Settings: 25 micrograms estradiol per 24 hours by skin patch

For `C[C@]12CC[C@@H]3c4ccc(O)cc4CC[C@H]3[C@@H]1CC[C@@H]2O` [estrogen, estradiol], the “fibronectin levels compared to placebo” value (day 7) is listed as “increased fibronectin levels”, the “wound size compared to placebo” value (day 7, aged men and women) is listed as “decrease in wound size” and the “collagen levels compared to placebo” value (days 7 and 80) is listed as “increased collagen levels”.
